The text below walks through data of patent publication US11572590B2, “Methods for evaluating tumor cell spheroids using 3D microfluidic cell culture device” (Dana-Farber Cancer Institute, Inc., priority 2017, dated 2023).

Read-outs that look alike come from different tables or passages of the source.

Common to all, as to assay: SelectScreen Kinase Profiling, single point inhibition and IC50 for off-target kinases
What all share (assay type): biochemical

Test [1] concerns the target T1, off-target kinases (Homo sapiens, UniProt Q04771, R206H).
T1 sequence (Q04771 21-509 R206H): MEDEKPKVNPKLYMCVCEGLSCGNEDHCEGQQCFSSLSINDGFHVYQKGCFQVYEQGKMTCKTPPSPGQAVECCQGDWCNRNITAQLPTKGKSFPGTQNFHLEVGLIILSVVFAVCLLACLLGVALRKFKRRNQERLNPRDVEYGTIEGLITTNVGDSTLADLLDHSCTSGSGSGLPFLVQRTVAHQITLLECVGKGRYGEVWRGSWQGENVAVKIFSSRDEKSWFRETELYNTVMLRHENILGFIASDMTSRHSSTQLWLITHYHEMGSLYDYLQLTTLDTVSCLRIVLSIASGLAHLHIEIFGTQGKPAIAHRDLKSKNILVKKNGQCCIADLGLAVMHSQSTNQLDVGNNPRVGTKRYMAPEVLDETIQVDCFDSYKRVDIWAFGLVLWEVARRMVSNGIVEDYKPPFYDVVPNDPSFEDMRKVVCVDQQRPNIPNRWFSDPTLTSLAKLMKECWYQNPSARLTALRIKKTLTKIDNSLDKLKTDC
Particulars: ACVR1 (ALK2) R206H, LanthaScreen Binding. In general terms: In TR-FRET formats the signal depends on donor and acceptor labels being close together.

Test [2] deals with off-target kinases (Homo sapiens, UniProt Q8TDX7). Particulars: NEK7, ZLYTE, ATP Km app.
Test [3] concerns the target off-target kinases (Homo sapiens, UniProt Q16584). The conditions noted are these: MAP3K11 (MLK3), LanthaScreen Binding.
For test [4], the target named is off-target kinases (Homo sapiens, UniProt Q08345). The conditions noted are these: DDR1, LanthaScreen Binding.
Test [5] concerns the target T2, off-target kinases (Homo sapiens, UniProt Q13188).
T2 sequence (Q13188 1-491): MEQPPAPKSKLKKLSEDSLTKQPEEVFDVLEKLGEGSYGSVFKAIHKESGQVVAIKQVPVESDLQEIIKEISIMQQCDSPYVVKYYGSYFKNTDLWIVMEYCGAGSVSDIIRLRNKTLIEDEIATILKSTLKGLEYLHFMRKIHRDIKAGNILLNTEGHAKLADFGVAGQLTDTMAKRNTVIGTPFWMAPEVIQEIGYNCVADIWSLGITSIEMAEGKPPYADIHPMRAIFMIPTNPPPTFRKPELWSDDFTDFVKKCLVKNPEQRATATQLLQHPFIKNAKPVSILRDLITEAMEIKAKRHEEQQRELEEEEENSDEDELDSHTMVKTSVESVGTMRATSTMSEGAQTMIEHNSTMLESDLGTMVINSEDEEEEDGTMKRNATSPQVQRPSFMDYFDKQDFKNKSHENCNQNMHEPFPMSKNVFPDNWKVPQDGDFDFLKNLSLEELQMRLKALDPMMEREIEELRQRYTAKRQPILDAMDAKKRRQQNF
The conditions noted are these: STK3 (MST2), ZLYTE, ATP Km app.

Chain of off-target kinases (Homo sapiens, UniProt Q8TDX7) (Q8TDX7 whole entry): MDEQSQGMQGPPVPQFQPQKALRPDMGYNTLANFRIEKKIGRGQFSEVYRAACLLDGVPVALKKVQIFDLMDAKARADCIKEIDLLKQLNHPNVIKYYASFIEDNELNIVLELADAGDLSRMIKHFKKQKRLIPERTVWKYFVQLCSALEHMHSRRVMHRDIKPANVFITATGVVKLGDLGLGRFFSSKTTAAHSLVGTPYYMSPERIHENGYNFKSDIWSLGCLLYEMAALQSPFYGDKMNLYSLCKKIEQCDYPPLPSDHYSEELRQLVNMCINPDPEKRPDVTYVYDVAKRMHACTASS
Chain of off-target kinases (Homo sapiens, UniProt Q08345) (Q08345 19-913): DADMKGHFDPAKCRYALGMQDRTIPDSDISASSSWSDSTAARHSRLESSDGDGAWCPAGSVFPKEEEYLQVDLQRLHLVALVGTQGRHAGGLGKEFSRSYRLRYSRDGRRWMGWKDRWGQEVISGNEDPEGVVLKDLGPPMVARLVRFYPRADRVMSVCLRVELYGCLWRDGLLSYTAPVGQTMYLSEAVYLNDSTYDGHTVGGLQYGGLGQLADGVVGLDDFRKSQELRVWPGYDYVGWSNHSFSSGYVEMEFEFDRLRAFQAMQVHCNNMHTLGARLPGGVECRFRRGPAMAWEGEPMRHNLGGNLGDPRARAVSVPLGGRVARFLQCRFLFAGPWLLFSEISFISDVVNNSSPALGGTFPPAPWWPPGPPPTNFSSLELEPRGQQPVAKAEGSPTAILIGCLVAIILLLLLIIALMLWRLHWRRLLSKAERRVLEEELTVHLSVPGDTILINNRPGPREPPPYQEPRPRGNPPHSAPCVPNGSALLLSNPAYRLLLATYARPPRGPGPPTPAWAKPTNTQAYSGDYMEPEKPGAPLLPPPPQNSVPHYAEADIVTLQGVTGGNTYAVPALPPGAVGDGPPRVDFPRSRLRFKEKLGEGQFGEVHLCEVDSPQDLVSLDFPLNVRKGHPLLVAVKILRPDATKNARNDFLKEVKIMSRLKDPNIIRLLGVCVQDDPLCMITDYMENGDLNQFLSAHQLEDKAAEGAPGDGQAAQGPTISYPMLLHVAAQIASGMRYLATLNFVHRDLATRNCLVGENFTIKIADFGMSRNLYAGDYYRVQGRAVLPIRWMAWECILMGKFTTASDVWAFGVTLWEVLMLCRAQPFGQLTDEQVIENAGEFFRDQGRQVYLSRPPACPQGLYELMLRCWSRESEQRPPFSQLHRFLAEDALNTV
Chain of off-target kinases (Homo sapiens, UniProt Q16584) (Q16584 whole entry): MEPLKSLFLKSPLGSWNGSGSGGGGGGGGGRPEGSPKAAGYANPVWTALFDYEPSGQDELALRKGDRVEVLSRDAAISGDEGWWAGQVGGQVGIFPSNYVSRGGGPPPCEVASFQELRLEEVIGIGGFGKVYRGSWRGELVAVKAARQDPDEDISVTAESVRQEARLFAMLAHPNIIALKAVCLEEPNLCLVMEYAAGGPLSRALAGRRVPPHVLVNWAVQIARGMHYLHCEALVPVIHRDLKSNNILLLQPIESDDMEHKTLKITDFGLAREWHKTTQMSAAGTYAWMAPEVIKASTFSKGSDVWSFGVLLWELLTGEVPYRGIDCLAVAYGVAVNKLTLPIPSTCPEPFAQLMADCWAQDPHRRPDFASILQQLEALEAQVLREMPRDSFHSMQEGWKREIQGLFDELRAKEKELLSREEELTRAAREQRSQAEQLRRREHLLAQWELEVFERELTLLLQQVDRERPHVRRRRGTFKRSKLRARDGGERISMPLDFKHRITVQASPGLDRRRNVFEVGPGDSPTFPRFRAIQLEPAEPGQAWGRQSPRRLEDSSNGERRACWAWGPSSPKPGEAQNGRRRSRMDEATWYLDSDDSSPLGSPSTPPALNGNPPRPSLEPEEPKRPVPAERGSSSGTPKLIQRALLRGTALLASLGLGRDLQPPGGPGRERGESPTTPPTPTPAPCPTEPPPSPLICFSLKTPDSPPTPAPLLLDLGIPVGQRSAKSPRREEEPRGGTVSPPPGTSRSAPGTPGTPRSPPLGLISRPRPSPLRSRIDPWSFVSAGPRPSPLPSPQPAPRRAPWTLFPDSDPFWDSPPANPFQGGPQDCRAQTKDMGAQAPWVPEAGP

For the molecule `N#Cc1cc(-c2ncnc(Nc3ccc(N4CCN(C5COC5)CC4)cc3)n2)ccc1OC1CCOCC1` [Compound 1, 5-(4-((4-(4-(oxetan-3-yl)piperazin-1-yl)phenyl)amino)-1,3,5-triazin-2-yl)-2-((tetrahydro-2H-pyran-4-yl)oxy)benzonitrile], the inhibition – broadly, the drop in the measured response relative to a control, in per cent – came to 88% on off-target kinases [1] (read-out: % Inhibition 1); 93% on off-target kinases [1] (read-out: % Inhibition 2); 91% at off-target kinases [1] (read-out: % Inhibition Avg); 5% at off-target kinases [2] (read-out: % Inhibition 1); 2% on off-target kinases [2] (read-out: % Inhibition 2); 3% on off-target kinases [2] (read-out: % Inhibition Avg). The inhibition on off-target kinases [3] (read-out: % Inhibition 1) was determined as 24%; at off-target kinases [3] (read-out: % Inhibition 2), 29%; on off-target kinases [3] (read-out: % Inhibition Avg), 26%; at off-target kinases [4] (read-out: % Inhibition 1), 3%; on off-target kinases [4] (read-out: % Inhibition 2), 2%; at off-target kinases [4] (read-out: % Inhibition Avg) it was 2%. Moreover, the inhibition on off-target kinases [5] (read-out: % Inhibition 1) is 5%; on off-target kinases [5] (read-out: % Inhibition 2) it was 6%; on off-target kinases [5] (read-out: % Inhibition Avg), 5%.
